# Reference: ChEMBL document CHEMBL4406842, “Synthesis and in vitro biological evaluation of novel derivatives of Flexicaulin A condensation with amino acid trifluoroacetate” (Eur J Med Chem, 2019)
# Legend:
# A549 = assay: Antiproliferative activity against human A549 cells assessed as reduction in cell viability incubated for 72 hrs by SRB assay; format: functional, cell-based; conditions: A549, 72 h
# [1] = Solubility of compound in water; format: physicochemical; conditions: buffer
# MCF7 = assay: Antiproliferative activity against human MCF7 cells assessed as reduction in cell viability incubated for 72 hrs by SRB assay; format: functional, cell-based; conditions: MCF7, 72 h
# MGC-803 = assay: Antiproliferative activity against human MGC803 cells assessed as reduction in cell viability incubated for 72 hrs by SRB assay; format: functional, cell-based; conditions: MGC-803, 72 h
# TE-1 = assay: Antiproliferative activity against human TE1 cells assessed as reduction in cell viability incubated for 72 hrs by SRB assay; format: functional, cell-based; conditions: TE-1, 72 h
SMILES,IC50 (A549) [nM],solubility [1],IC50 (MCF7) [nM],IC50 (MGC-803) [nM],IC50 (TE-1) [nM]
C=C1C(=O)[C@]23[C@H](OC(=O)[C@@H](N)CCCN)[C@H]1C[C@H](O)[C@H]2[C@]1(COC(C)=O)CCCC(C)(C)[C@H]1C[C@H]3OC.O=C(O)C(F)(F)F.O=C(O)C(F)(F)F,8040,Soluble,6550,5280,2710
C=C1C(=O)[C@]23[C@H](OC(=O)[C@@H]4CCCN4C(=O)OC(C)(C)C)[C@H]1C[C@H](O)[C@H]2[C@]1(COC(C)=O)CCCC(C)(C)[C@H]1C[C@H]3OC,5900,Insoluble,3700,2810,2780
C=C1C(=O)[C@]23[C@H](OC(=O)[C@H](C)N(C)C(=O)OC(C)(C)C)[C@H]1C[C@H](O)[C@H]2[C@]1(COC(C)=O)CCCC(C)(C)[C@H]1C[C@H]3OC,5410,Insoluble,2050,3290,1040
C=C1C(=O)[C@]23[C@H](OC(=O)[C@H](C(C)C)N(C)C(=O)OC(C)(C)C)[C@H]1C[C@H](O)[C@H]2[C@]1(COC(C)=O)CCCC(C)(C)[C@H]1C[C@H]3OC,9500,Insoluble,7100,5470,5410
C=C1C(=O)[C@]23[C@H](OC(=O)[C@H]4CCCNC4)[C@H]1C[C@H](O)[C@H]2[C@]1(COC(C)=O)CCCC(C)(C)[C@H]1C[C@H]3OC.O=C(O)C(F)(F)F,17200,Soluble,11500,6220,6550
C=C1C(=O)[C@]23[C@H](OC(=O)[C@H](CC)NC(=O)OC(C)(C)C)[C@H]1C[C@H](O)[C@H]2[C@]1(COC(C)=O)CCCC(C)(C)[C@H]1C[C@H]3OC,4810,Insoluble,3090,4850,1740
C=C1C(=O)[C@]23[C@H](OC(=O)[C@@H](N)CC)[C@H]1C[C@H](O)[C@H]2[C@]1(COC(C)=O)CCCC(C)(C)[C@H]1C[C@H]3OC.O=C(O)C(F)(F)F,4420,Soluble,3750,3880,2570
C=C1C(=O)[C@]23[C@H](OC(=O)CCCCCNC(=O)OC(C)(C)C)[C@H]1C[C@H](O)[C@H]2[C@]1(COC(C)=O)CCCC(C)(C)[C@H]1C[C@H]3OC,5410,Insoluble,2840,3500,1720
C=C1C(=O)[C@]23[C@H](OC(=O)[C@H](C)NC(=O)OC(C)(C)C)[C@H]1C[C@H](O)[C@H]2[C@]1(COC(C)=O)CCCC(C)(C)[C@H]1C[C@H]3OC,5630,Insoluble,2360,2640,1070
C=C1C(=O)[C@]23[C@H](OC(=O)[C@@H](NC(=O)OC(C)(C)C)C(C)C)[C@H]1C[C@H](O)[C@H]2[C@]1(COC(C)=O)CCCC(C)(C)[C@H]1C[C@H]3OC,3940,Insoluble,2730,2880,1680
C=C1C(=O)[C@@]23[C@H](O)C[C@@H]4C(C)(C)CCC[C@@]4(COC(C)=O)[C@@H]2[C@@H](O)C[C@@H]1[C@H]3O [FLEXICANLIN A],6770,Insoluble,5450,9940,5070
C=C1C(=O)[C@]23[C@H](OC(=O)[C@H](CCCC)NC(=O)OC(C)(C)C)[C@H]1C[C@H](O)[C@H]2[C@]1(COC(C)=O)CCCC(C)(C)[C@H]1C[C@H]3OC,11000,Insoluble,4420,11200,4490
C=C1C(=O)[C@]23[C@H](OC(=O)[C@H](CCSC)NC(=O)OC(C)(C)C)[C@H]1C[C@H](O)[C@H]2[C@]1(COC(C)=O)CCCC(C)(C)[C@H]1C[C@H]3OC,4630,Insoluble,2270,2860,1330
C=C1C(=O)[C@]23[C@H](OC(=O)[C@H](C)N)[C@H]1C[C@H](O)[C@H]2[C@]1(COC(C)=O)CCCC(C)(C)[C@H]1C[C@H]3OC.O=C(O)C(F)(F)F,3960,Soluble,7370,10500,3070
C=C1C(=O)[C@]23[C@H](O)[C@H]1CC[C@H]2[C@@]12CO[C@]3(O)[C@@H](O)[C@@H]1C(C)(C)CC[C@@H]2O [ORIDONIN],13400,,22000,14100,12700

# More lines, main results first:
IC50 (A549) [nM],solubility [1],IC50 (MCF7) [nM],IC50 (MGC-803) [nM],SMILES,IC50 (TE-1) [nM]
2990,Insoluble,2150,3330,C=C1C(=O)[C@]23[C@H](OC(=O)[C@H](CCCNC(=O)OC(C)(C)C)NC(=O)OC(C)(C)C)[C@H]1C[C@H](O)[C@H]2[C@]1(COC(C)=O)CCCC(C)(C)[C@H]1C[C@H]3OC,1390
3350,Soluble,1810,1060,C=C1C(=O)[C@]23[C@H](OC(=O)[C@@H](N)CCc4ccccc4)[C@H]1C[C@H](O)[C@H]2[C@]1(COC(C)=O)CCCC(C)(C)[C@H]1C[C@H]3OC.O=C(O)C(F)(F)F,2980
2710,Soluble,1010,1000,C=C1C(=O)[C@]23[C@H](OC(=O)[C@@H](N)Cc4ccccc4)[C@H]1C[C@H](O)[C@H]2[C@]1(COC(C)=O)CCCC(C)(C)[C@H]1C[C@H]3OC.O=C(O)C(F)(F)F,1880
2940,Insoluble,1580,2210,C=C1C(=O)[C@]23[C@H](OC(=O)[C@@H](NC(=O)OC(C)(C)C)c4ccccc4)[C@H]1C[C@H](O)[C@H]2[C@]1(COC(C)=O)CCCC(C)(C)[C@H]1C[C@H]3OC,870
1640,Soluble,4570,4940,C=C1C(=O)[C@]23[C@H](OC(=O)[C@@H](N)CCC)[C@H]1C[C@H](O)[C@H]2[C@]1(COC(C)=O)CCCC(C)(C)[C@H]1C[C@H]3OC.O=C(O)C(F)(F)F,1720
3860,Soluble,2570,3150,C=C1C(=O)[C@]23[C@H](OC(=O)CN)[C@H]1C[C@H](O)[C@H]2[C@]1(COC(C)=O)CCCC(C)(C)[C@H]1C[C@H]3OC.O=C(O)C(F)(F)F,1850
2840,Soluble,3490,7150,C=C1C(=O)[C@]23[C@H](OC(=O)[C@@H]4CCCCN4)[C@H]1C[C@H](O)[C@H]2[C@]1(COC(C)=O)CCCC(C)(C)[C@H]1C[C@H]3OC.O=C(O)C(F)(F)F,3160
3570,Insoluble,2690,3000,C=C1C(=O)[C@]23[C@H](OC(=O)[C@@H]4CCCCN4C(=O)OC(C)(C)C)[C@H]1C[C@H](O)[C@H]2[C@]1(COC(C)=O)CCCC(C)(C)[C@H]1C[C@H]3OC,1460
3150,Insoluble,2460,1510,C=C1C(=O)[C@]23[C@H](OC(=O)[C@H](Cc4ccccc4)N(C)C(=O)OC(C)(C)C)[C@H]1C[C@H](O)[C@H]2[C@]1(COC(C)=O)CCCC(C)(C)[C@H]1C[C@H]3OC,1160
2670,Soluble,1270,990,C=C1C(=O)[C@]23[C@H](OC(=O)[C@@H](N)C(C)C)[C@H]1C[C@H](O)[C@H]2[C@]1(COC(C)=O)CCCC(C)(C)[C@H]1C[C@H]3OC.O=C(O)C(F)(F)F,1970
1540,Soluble,2510,3220,C=C1C(=O)[C@]23[C@H](OC(=O)[C@@H](N)CCCC)[C@H]1C[C@H](O)[C@H]2[C@]1(COC(C)=O)CCCC(C)(C)[C@H]1C[C@H]3OC.O=C(O)C(F)(F)F,2640
3490,Insoluble,2580,2550,C=C1C(=O)[C@]23[C@H](OC(=O)[C@H]4CCCN(C(=O)OC(C)(C)C)C4)[C@H]1C[C@H](O)[C@H]2[C@]1(COC(C)=O)CCCC(C)(C)[C@H]1C[C@H]3OC,1650
2790,Soluble,5030,6340,C=C1C(=O)[C@]23[C@H](OC(=O)[C@H](C)NC)[C@H]1C[C@H](O)[C@H]2[C@]1(COC(C)=O)CCCC(C)(C)[C@H]1C[C@H]3OC.O=C(O)C(F)(F)F,3320
1680,Soluble,1110,1660,C=C1C(=O)[C@]23[C@H](OC(=O)[C@@H](N)c4ccccc4)[C@H]1C[C@H](O)[C@H]2[C@]1(COC(C)=O)CCCC(C)(C)[C@H]1C[C@H]3OC.O=C(O)C(F)(F)F,920
1770,,1650,1110,C=C1C(=O)[C@]23[C@H](O)[C@H]1C[C@H](O)[C@H]2[C@]1(COC(C)=O)CCCC(C)(C)[C@H]1C[C@H]3OC,4400
